Measured values: ChEMBL document CHEMBL3244399, “Antifungal agents. 4. Chemical modification of antibiotics from Polyangium cellulosum var. fulvum. Ester and amide analogues of ambruticin” (1979)
Values after ≈ are worked out from the molar mass of the structure shown. Active and inactive are the calls of the source. No cut-off for these calls is given here.

Experiments:
[1] = tested on: Histoplasma capsulatum; assay: Antifungal activity against Histoplasma capsulatum assessed as growth inhibition by standard broth dilution method; type: functional
[2] = Antifungal activity against Microsporum fulvum assessed as growth inhibition by standard broth dilution method; type: functional; details: Arthroderma fulvum
[3] = tested on: Streptococcus pyogenes; assay: Antifungal activity against Streptococcus pyogenes assessed as growth inhibition by standard broth dilution method; type: functional
[4] = tested on: Candida albicans; assay: Antifungal activity against Candida albicans assessed as growth inhibition by standard broth dilution method; type: functional, organism-based

| Structure (SMILES) | MIC [1] [µg/mL] | MIC [2] [µg/mL] | MIC [3] | inhibition [4] |
| --- | --- | --- | --- | --- |
| CC[C@H]1O[C@@H](/C(C)=C/[C@H](C)/C=C/[C@H]2[C@@H](C)[C@@H]2/C=C/[C@@H]2O[C@H](CC(=O)OC)C[C@H](O)[C@H]2O)CC=C1C (relative stereo) | 0.39 (≈ 0.798 µM) | 0.39 (≈ 0.798 µM) | inactive | inactive |
| CC[C@H]1O[C@@H](/C(C)=C/[C@H](C)/C=C/[C@H]2[C@@H](C)[C@@H]2/C=C/[C@@H]2O[C@H](CC(=O)NCc3ccccc3)C[C@H](O)[C@H]2O)CC=C1C | 6.25 (≈ 11.1 µM) | > 50 | 3.12 µg/mL (≈ 5.53 µM) | inactive |
| CC[C@H]1O[C@@H](/C(C)=C/[C@H](C)/C=C/[C@H]2[C@@H](C)[C@@H]2/C=C/[C@@H]2O[C@H](CC(=O)N3CCCC3)C[C@H](OC(C)=O)[C@H]2OC(C)=O)CC=C1C | 50 (≈ 81.7 µM) | > 50 | inactive | inactive |
| CC[C@H]1O[C@@H](/C(C)=C/[C@H](C)/C=C/[C@H]2[C@@H](C)[C@@H]2/C=C/[C@@H]2O[C@H](CC(=O)OC)C[C@H](OC(C)=O)[C@H]2OC(C)=O)CC=C1C (relative stereo) | 12.5 (≈ 21.8 µM) | > 50 | inactive | inactive |
| CC[C@H]1O[C@@H](/C(C)=C/[C@H](C)/C=C/[C@H]2[C@@H](C)[C@@H]2/C=C/[C@@H]2O[C@H](CC(=O)N(C(=O)NC3CCCCC3)C3CCCCC3)C[C@H](OC(C)=O)[C@H]2OC(C)=O)CC=C1C | > 50 | > 50 | inactive | inactive |
| CC[C@H]1O[C@@H](/C(C)=C/[C@H](C)/C=C/[C@H]2[C@@H](C)[C@@H]2/C=C/[C@@H]2O[C@H](CC(=O)N3CCCCC3)C[C@H](O)[C@H]2O)CC=C1C | 3.12 (≈ 5.76 µM) | 0.78 (≈ 1.44 µM) | 1.56 µg/mL (≈ 2.88 µM) | inactive |
| CC[C@H]1O[C@@H](/C(C)=C/[C@H](C)/C=C/[C@H]2[C@@H](C)[C@@H]2/C=C/[C@@H]2O[C@H](CC(=O)O)C[C@H](OC(C)=O)[C@H]2OC(C)=O)CC=C1C (relative stereo) | 3.12 (≈ 5.58 µM) | 3.12 (≈ 5.58 µM) | 6.25 µg/mL (≈ 11.2 µM) | inactive |
| CC[C@H]1O[C@@H](/C(C)=C/[C@H](C)/C=C/[C@H]2[C@@H](C)[C@@H]2/C=C/[C@@H]2O[C@H](CC(=O)OC)C[C@H](OC(=O)Nc3ccc(Cl)cc3)[C@H]2OC(=O)Nc2ccc(Cl)cc2)CC=C1C | 50 (≈ 62.8 µM) | > 50 | inactive | inactive |
| CCC(=O)O[C@H]1[C@H](/C=C/[C@H]2[C@H](C)[C@@H]2/C=C/[C@@H](C)/C=C(\C)[C@H]2CC=C(C)[C@@H](CC)O2)O[C@H](CC(=O)O)C[C@@H]1OC(=O)CC | 6.25 (≈ 10.7 µM) | > 50 | 6.25 µg/mL (≈ 10.7 µM) | inactive |
| CC[C@H]1O[C@@H](/C(C)=C/[C@H](C)/C=C/[C@H]2[C@@H](C)[C@@H]2/C=C/[C@@H]2O[C@H](CC(=O)O)C[C@H](OC=O)[C@H]2OC=O)CC=C1C | 1.56 (≈ 2.94 µM) | 1.56 (≈ 2.94 µM) | 25 µg/mL (≈ 47.1 µM) | inactive |
| CC[C@H]1O[C@@H](/C(C)=C/[C@H](C)/C=C/[C@H]2[C@@H](C)[C@@H]2/C=C/[C@@H]2O[C@H](CC(=O)NCc3ccccc3)C[C@H](OC(C)=O)[C@H]2OC(C)=O)CC=C1C | – | – | – | inactive |
| CC[C@H]1O[C@@H](/C(C)=C/[C@H](C)/C=C/[C@H]2[C@@H](C)[C@@H]2/C=C/[C@@H]2O[C@H](CC(=O)NC3CCCCC3)C[C@H](OC(C)=O)[C@H]2OC(C)=O)CC=C1C | > 50 | > 50 | inactive | inactive |
| CC[C@H]1O[C@@H](/C(C)=C/[C@H](C)/C=C/[C@H]2[C@@H](C)[C@@H]2/C=C/[C@@H]2O[C@H](CC(=O)N(C(=O)NC3CCCCC3)C3CCCCC3)C[C@H](O)[C@H]2O)CC=C1C | > 50 | > 50 | inactive | inactive |
| CC[C@H]1O[C@@H](/C(C)=C/[C@H](C)/C=C/[C@H]2[C@@H](C)[C@@H]2/C=C/[C@@H]2O[C@H](CC(=O)OC)C[C@H](OC(=O)Nc3ccccc3)[C@H]2OC(=O)Nc2ccccc2)CC=C1C | 25 (≈ 34.4 µM) | > 50 | inactive | inactive |
| CC[C@H]1O[C@@H](/C(C)=C/[C@H](C)/C=C/[C@H]2[C@@H](C)[C@@H]2/C=C/[C@@H]2O[C@H](CC(=O)OC)C[C@@H]3OC(=O)O[C@@H]23)CC=C1C (relative stereo) | 0.78 (≈ 1.52 µM) | 0.39 (≈ 0.758 µM) | inactive | inactive |
| CCCCNC(=O)C[C@@H]1C[C@H](O)[C@@H](O)[C@H](/C=C/[C@H]2[C@H](C)[C@@H]2/C=C/[C@@H](C)/C=C(\C)[C@H]2CC=C(C)[C@@H](CC)O2)O1 | 1.56 (≈ 2.94 µM) | 6.25 (≈ 11.8 µM) | 1.56 µg/mL (≈ 2.94 µM) | inactive |
| CCCC(=O)O[C@H]1[C@H](/C=C/[C@H]2[C@H](C)[C@@H]2/C=C/[C@@H](C)/C=C(\C)[C@H]2CC=C(C)[C@@H](CC)O2)O[C@H](CC(=O)O)C[C@@H]1OC(=O)CCC | 12.5 (≈ 20.3 µM) | > 50 | 6.25 µg/mL (≈ 10.2 µM) | inactive |
| CC[C@H]1O[C@@H](/C(C)=C/[C@H](C)/C=C/[C@H]2[C@@H](C)[C@@H]2/C=C/[C@@H]2O[C@H](CC(=O)O)C[C@H](O)[C@H]2O)CC=C1C (relative stereo) [AMBRUTICIN] | 0.195 (≈ 0.411 µM) | 0.098 (≈ 0.206 µM) | 25 µg/mL (≈ 52.7 µM) | inactive |
| CC[C@H]1O[C@@H](/C(C)=C/[C@H](C)/C=C/[C@H]2[C@@H](C)[C@@H]2/C=C/[C@@H]2O[C@H](CC(=O)N3CCCCC3)C[C@H](OC(C)=O)[C@H]2OC(C)=O)CC=C1C | – | – | – | inactive |
| CCCCNC(=O)C[C@@H]1C[C@H](OC(C)=O)[C@@H](OC(C)=O)[C@H](/C=C/[C@H]2[C@H](C)[C@@H]2/C=C/[C@@H](C)/C=C(\C)[C@H]2CC=C(C)[C@@H](CC)O2)O1 | – | – | – | inactive |
| CC[C@H]1O[C@@H](/C(C)=C/[C@H](C)/C=C/[C@H]2[C@@H](C)[C@@H]2/C=C/[C@@H]2O[C@H](CC(=O)NC3CCCCC3)C[C@H](O)[C@H]2O)CC=C1C | 3.12 (≈ 5.61 µM) | 25 (≈ 45 µM) | – | inactive |
| CC[C@H]1O[C@@H](/C(C)=C/[C@H](C)/C=C/[C@H]2[C@@H](C)[C@@H]2/C=C/[C@@H]2O[C@H](CC(=O)N3CCCC3)C[C@H](O)[C@H]2O)CC=C1C | 0.39 (≈ 0.739 µM) | 0.78 (≈ 1.48 µM) | 3.12 µg/mL (≈ 5.91 µM) | inactive |
| CC[C@H]1O[C@@H](/C(C)=C/[C@H](C)/C=C/[C@H]2[C@@H](C)[C@@H]2/C=C/[C@@H]2O[C@H](CC(=O)OC)C[C@H](OC=O)[C@H]2OC=O)CC=C1C | 3.12 (≈ 5.73 µM) | 12.5 (≈ 22.9 µM) | inactive | inactive |
